One may read the GI50 as the concentration that inhibits growth by half.

The values below come from patent US12391676B2 (H. LEE MOFFITT CANCER CENTER AND RESEARCH INSTITUTE, INC., priority 2018, dated 2025).

For data set [1], the target named is T1, BRD4 (Homo sapiens (Human), UniProt O60885). Nature of the data set: BRD4 IC50. It counts as binding. The following applies: Table 2.
The test system of data set [2] is BaF3-JAK2-V617F-luciferase cells. The settings on record: for median survival (post-treatment start): treated for 14 days. As to the method:
Vehicle control and MA9-060 were administered orally twice daily at the indicated doses to Balb/c mice injected with BaF3-JAK2-V617F-luciferase cells. Mice were imaged for luciferase activity before (Day 0) and after 7 days of treatment (Tx) (FIG. 3A) with the mean total flux from target cells shown in (FIG. 3B).

For data set [3], the system named is primary human hematopoietic progenitor cells. Description: CFU-G/M colony formation of primary patient cells. The settings on record: colonies after 2 weeks. It counts as cell-based.
Experimental: (§1) Colony formation was determined after 2 weeks and is indicated relative to no drug (DMSO).
Data set [4] has as its system PBMCs from a JAK2-V617F+ myelofibrosis patient. Description: Epo-independent erythroid colony (EEC) formation of primary MPN patient cells. The settings on record: colonies after 2 weeks, relative to DMSO, compared with fedratinib and ruxolitinib.
Experimental: as §1
Data set [5] has as its target JAK2 (Homo sapiens (Human), UniProt O60674). Description: JAK2 IC50. It counts as biochemical. The settings on record: Table 2.
Data set [6] has as its target T1, BRD4. Description: BRD4 DSF thermal shift (ΔTm). The format is binding.
Data set [7] concerns UKE1 cells. Description: Drug persistence of UKE1 cells under escalating drug concentration. It counts as cell-based. Here is the method: UKE1 cells were incubated with DMSO, MA9-060, fedratinib, or ruxolitinib at their respective GI20 concentrations. Cell growth was compared to DMSO. Cells were passed back to the same density after counting. Drug concentration was doubled if growth was >90% of DMSO. Fold GI20 is plotted vs time, with drug persistence represented by upward steps of the lines. The final MA9-060, ruxolitinib, and fedratinib concentrations at the end of the experiment were 0.15, 0.6 and 2.4 uM, respectively. Fedratinib-treated cells lost complete viability after about 30 days (after 3 weeks in 2.4 uM).

Data set [8] relates to UKE1 cells. Description: Growth inhibition GI50, UKE1 cells. The format is cell-based. The settings on record: UKE1, Table 2; read-out: GI50 (UKE1).
Data set [9] has as its system MM1.S cells. Nature of the data set: Antiproliferative activity, MM1.S cells. The format is cell-based. The settings on record: Homo sapiens. Put shortly: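 MM.1S and MV4-11 AML cells were treated with compounds; c-Myc levels served as biomarker after 6-12 hr treatment, and antiproliferative activity was measured after 48-72 hr treatment.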
For data set [10], the system named is MV4-11 AML cells. The following applies: background, literature; read-out: IC50, proliferation of MV4-11 AML cells; cited from earlier work.
Data set [11] deals with c-Myc. The following applies: background, literature; cited from earlier work.
For data set [12], the system named is BaF3-JAK2-VF cells. Description: Growth inhibition GI50, BaF3-JAK2-VF cells. It counts as cell-based. The settings on record: Table 1 comments.
In data set [13] the test system is SET2 cells. Nature of the data set: Growth inhibition GI50, SET2 cells. The format is cell-based. The following applies: Homo sapiens, SET-2; Table 1 comments; unit printed only for the neighbouring values in the cell.
Data set [14] in a line: Human microsome stability. It counts as in vitro ADME. The following applies: Table 1 comments; meaning of % not stated.
A short description of data set [15]: Mouse microsome stability. The following applies: Table 1 comments; meaning of % not stated. The format is in vitro ADME.

Entries after “also recorded” stand apart in the source; their conditions may differ. Like-named read-outs stand apart in the source and are kept apart here.

JAK2, sequence (O60674 whole entry): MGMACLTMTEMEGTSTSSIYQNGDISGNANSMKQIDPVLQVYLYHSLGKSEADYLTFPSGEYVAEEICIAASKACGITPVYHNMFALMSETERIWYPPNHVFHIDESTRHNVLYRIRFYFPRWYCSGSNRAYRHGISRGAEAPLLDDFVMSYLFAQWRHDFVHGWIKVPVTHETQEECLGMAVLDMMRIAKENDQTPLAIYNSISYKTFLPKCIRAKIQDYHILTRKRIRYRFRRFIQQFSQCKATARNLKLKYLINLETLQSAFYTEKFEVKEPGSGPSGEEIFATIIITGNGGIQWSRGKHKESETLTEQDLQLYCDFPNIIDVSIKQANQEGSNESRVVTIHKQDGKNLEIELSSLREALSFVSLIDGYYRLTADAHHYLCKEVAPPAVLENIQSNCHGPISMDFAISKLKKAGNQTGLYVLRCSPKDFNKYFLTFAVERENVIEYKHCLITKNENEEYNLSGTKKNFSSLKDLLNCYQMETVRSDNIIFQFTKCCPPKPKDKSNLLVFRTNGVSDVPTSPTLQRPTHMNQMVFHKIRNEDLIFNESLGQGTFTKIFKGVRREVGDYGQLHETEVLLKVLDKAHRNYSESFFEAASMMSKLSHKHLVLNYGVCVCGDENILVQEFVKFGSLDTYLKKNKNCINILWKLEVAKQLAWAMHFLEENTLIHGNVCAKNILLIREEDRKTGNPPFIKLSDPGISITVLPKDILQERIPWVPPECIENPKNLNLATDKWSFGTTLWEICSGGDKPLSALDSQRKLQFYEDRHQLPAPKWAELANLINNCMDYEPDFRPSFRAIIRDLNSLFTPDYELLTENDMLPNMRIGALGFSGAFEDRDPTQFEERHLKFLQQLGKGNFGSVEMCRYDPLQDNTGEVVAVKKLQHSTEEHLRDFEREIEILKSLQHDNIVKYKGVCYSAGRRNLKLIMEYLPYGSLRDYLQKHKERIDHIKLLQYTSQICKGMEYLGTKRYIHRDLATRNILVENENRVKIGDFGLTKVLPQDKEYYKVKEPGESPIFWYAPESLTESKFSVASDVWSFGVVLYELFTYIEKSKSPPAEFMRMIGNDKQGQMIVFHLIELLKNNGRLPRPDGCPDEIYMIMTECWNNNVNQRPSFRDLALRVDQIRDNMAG

For the compound `Cc1cnc(Nc2ccc(C3CCN(C)CC3)c(F)c2)nc1Nc1ccc(Cl)c(NS(=O)(=O)C(C)(C)C)c1` [MA9-060, N-(2-Chloro-5-((2-((3-fluoro-4-(1-methylpiperidin-4-yl)phenyl)amino)-5-methylpyrimidin-4-yl)amino)phenyl)-2-methylpropane-2-sulfonamide], the values for the IC50 in data set [1] and in data set [5] were 26 nM and 3.3 nM, respectively. Besides, the “median survival (post-treatment start)” value was 19 days in data set [2] (10 mg/kg orally twice daily), 26 days in data set [2] (25 mg/kg orally twice daily) and 31 days in data set [2] (50 mg/kg orally twice daily). For the same compound, the toxicity result in data set [2] (25 mg/kg twice daily orally) is “No toxicity was detected”. In addition, the “inhibition of BaF3-JAK2-V617F-luciferase cells in Balb/c mice” value in data set [2] (oral, twice daily, luciferase imaging) is listed as “dose-dependent inhibition”. For the same compound, the “effect on CFU-G/M colony growth” value in data set [3] is on record as “not affected; also recorded: Little effect”. Further, the “inhibition of Epo-independent (neoplastic) erythroid colony (EEC) formation” value in data set [4] was “more effective than Fedratinib or Ruxolitinib; also recorded: superior to fedratinib and ruxolitinib”. Besides, in [6] (Table 2), the “BRD4 DSF (ΔTm)” value amounted to 14.5 °C. In addition, in data set [7] (UKE1 cells started at GI20, concentration doubled if growth >90% of DMSO), the “development of drug persistence” value was “do not develop drug persistence; also recorded: could not escape a low concentration”. In addition, the “final drug concentration at the end of the experiment” value in data set [7] (UKE1 cells, drug persistence experiment) stood at 0.15 µM. The GI50 was 150 nM in data set [8] and 43 nM in data set [9] (Table 2, read-out: GI50 (MM1S)).

As for `Cc1cnc(Nc2ccc(OCCN3CCCC3)cc2)nc1Nc1cccc(S(=O)(=O)NC(C)(C)C)c1` [TG101348], the IC50 in [10] was 79 nM. Also, in data set [11], the “downregulation of c-Myc in MM.1S cells” value is “strong downregulation”.

For `Cc1cnc(Nc2ccc(C3CCN(C)CC3)c(F)c2)nc1Nc1ccc(Cl)c(NS(=O)(=O)C(C)(C)C)c1` [drawing 9], the values for the GI50 in data set [12] and in [13] were 28 nM and 54 nM, respectively. The compound further returned a Human microsome in data set [14] of 42.6%. Also, the “DSF ΔTm” value in data set [6] (Table 1) was 14.2 °C. In addition, the IC50 in data set [9] (Table 1 comments) was 43 nM. The compound further yielded a Mouse microsome in [15] of 100%.
